Reference: paper PMC8070829, “Discovery of New Coumarin-Based Lead with Potential Anticancer, CDK4 Inhibition and Selective Radiotheranostic Effect: Synthesis, 2D & 3D QSAR, Molecular Dynamics, In Vitro Cytotoxicity, Radioiodination, and Biodistribution Studies” (Molecules, 2021)
Like-named read-outs stand apart in the source and are kept apart here.

Key:
MCF-7 cells = assay: In vitro cytotoxicity, MCF-7; type: cell-based; details: Homo sapiens, MCF7, MCF-7 breast cancer cell line
Description: (§1) Mammalian cell lines: MCF-7 cells (human breast cancer) cell line, A-549 (human Lung Carcinoma) and CHO-K1 cells (hamster ovary cancer) cell line were obtained from the American Type Culture Collection (ATCC, Rockville, MD). Fetal bovine serum, RPMI-1640, HEPES buffer solution, L-glutamine, gentamycin and 0.25% Trypsin-EDTA were purchased from Lonza (Belgium). All reagents and chemicals were of pharmaceutical pure grade. Non-carrier added Na^131I solution (pH = 7) was purchased from the Research and Production Facility, The Egyptian Atomic Energy Authority. Chemicals were purchased from Sigma Aldrich and Lonza. Monitoring of chemical reactions was done by using analytical TLC with Merck 60 F-254 silica-gel plates (Merck, Germany), and visualization was done with ultraviolet light.
(§2) Cytotoxicity study was performed at the Regional Centre for Mycology and Biotechnology (RCMB), Al-Azhar University. Mammalian cell lines: human breast cancer cell line (MCF-7 cells), human colon cancer cell line (HCT-116 cells), and human lung cancer cell line (A-549 cells) were obtained from VACSERA Tissue Culture Unit, Cairo, Egypt. The cells were propagated in Dulbecco’s modified Eagle’s medium supplemented with 10% heat-inactivated fetal bovine serum, 1% L-glutamine, HEPES buffer, and 50 μg/mL gentamycin. All cells were maintained at 37 °C in a humidified atmosphere with 5% CO2 and were subcultured two times a week. For the cytotoxicity assay, the cells were seeded in 96-well plate at a cell concentration of 1 × 10^4 cells per well in 100 μL of growth medium. Fresh medium containing different concentrations of the test sample was added after 24 h of seeding. Serial two-fold dilutions of the tested chemical compound were added to confluent cell monolayers dispensed into 96-well, flat-bottomed microtiter plates (Falcon, NJ, USA) using a multichannel pipette. The microtiter plates were incubated at 37 °C in a humidified incubator with 5% CO2 for a period of 48 h. Three wells were used for each concentration of the test sample. Control cells were incubated without test sample and with or without DMSO. The little percentage of DMSO present in the wells (maximal 0.1%) was found not to affect the experiment. After incubation of the cells for at 37 °C, various concentrations of sample were added, and the incubation was continued for 24 h, and viable cells yield was determined by a colorimetric method. In brief, after the end of the incubation period, media were aspirated, and the crystal violet solution (1%) was added to each well for at least 30 min. The stain was removed, and the plates were rinsed using tap water until all excess stain is removed. Glacial acetic acid (30%) was then added to all wells and mixed thoroughly, and then the absorbance of the plates was measured after gently shaken on a microplate reader, using a test wavelength of 490 nm. All results were corrected for background absorbance detected in wells without added stain. Treated samples were compared with the cell control in the absence of the tested compound. All experiments were carried out in triplicate. The cell cytotoxic effect of each tested compound was calculated. The optical density was measured with the microplate reader to determine the number of viable cells, and the percentage of […] was calculated as (1 − (ODt/ODc)) × 100% where ODt is the mean optical density of wells treated with the tested sample and ODc is the mean optical density of untreated cells. The relation between surviving cells and drug concentration is plotted to get the survival curve of each tumor cell line after treatment with the specified compound.

CHO-K1 cells = assay: In vitro cytotoxicity, CHO-K1; type: cell-based, hamster; details: CHO-K1 ovarian cell line
Description: as §1, §2

A-549 cells = assay: In vitro cytotoxicity, A-549; type: cell-based; details: Homo sapiens, A549; A-549 cell line
Description: as §1, §2

CDK4 enzyme = target: T1, CDK4 enzyme (Homo sapiens, UniProt P11802); assay: CDK4 enzyme inhibition assay; type: biochemical
T1 construct: purchased Reaction Biology Corp. (Kinase HotSpot service)
Experimental: Reaction Biology Corp. Kinase HotSpotSM service (http://www.reactionbiology.com, accessed on 1 April 2019) was used for screening of tested compounds. CDK4 Kinase inhibitory activities were assessed by the HotSpot assay platform, which contained specific kinase/substrate pairs along with required cofactors. Base reaction buffer: 20 mM Hepes (pH 7.5), 10 mM MgCl2, 1 mM EGTA, 0.02% Brij35, 0.02 mg/mL BSA, 0.1 mM Na3VO4, 2 mM DTT, 1% DMSO. Testing compounds were dissolved in 100% DMSO to specific concentration. The serial dilution was conducted in DMSO. The reaction mixture containing the examined compound and 33P-ATP was incubated at room temperature for 2 h and radioactivity was detected by the filter-binding method. Kinase activity data were expressed as the percent remaining kinase activity in test samples compared to vehicle (dimethyl sulfoxide) reactions.
For CDK4 enzyme inhibition, CDK4 ELISA kit, Cloud-Clone Corp, US was used. This kit is used for the in vitro quantitative measurement of CDK4 concentrations in tissue homogenates, cell lysates and other biological fluids with high sensitivity and specificity. The cancer cells were treated with different amounts of each compound according to the aforementioned protocol. In addition, the cells were lysed and then treated as instructed by the manufacturer’s protocol. The absorbance of each well was detected at 450 nm using an ELISA plate reader. The results are reported as half maximal inhibitory concentration (IC50).

CDK4 [1] = details: cited from earlier work
CDK4 [2] = details: cited from earlier work; remark: listed apart in the source
CDK6 = details: cited from earlier work
[3] = N-aryl aminothiazoles, in vitro

T1 sequence (P11802 whole entry): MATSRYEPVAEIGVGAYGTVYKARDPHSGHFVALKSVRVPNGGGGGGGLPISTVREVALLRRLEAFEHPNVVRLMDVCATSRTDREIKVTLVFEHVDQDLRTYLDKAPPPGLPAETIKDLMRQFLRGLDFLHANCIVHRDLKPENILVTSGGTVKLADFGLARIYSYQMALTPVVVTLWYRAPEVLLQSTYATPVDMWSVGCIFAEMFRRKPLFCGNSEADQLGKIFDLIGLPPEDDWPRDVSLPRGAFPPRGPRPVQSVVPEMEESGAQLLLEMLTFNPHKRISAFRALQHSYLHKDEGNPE
T1 sequence (P24385 whole entry partner): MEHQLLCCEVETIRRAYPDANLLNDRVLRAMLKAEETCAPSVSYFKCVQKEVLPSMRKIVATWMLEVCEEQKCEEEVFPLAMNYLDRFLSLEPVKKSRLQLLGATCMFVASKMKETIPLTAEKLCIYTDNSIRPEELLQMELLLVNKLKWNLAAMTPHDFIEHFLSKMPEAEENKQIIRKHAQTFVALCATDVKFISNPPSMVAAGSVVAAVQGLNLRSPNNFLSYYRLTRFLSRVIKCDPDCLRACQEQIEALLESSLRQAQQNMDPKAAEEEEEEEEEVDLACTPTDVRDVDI

SMILES | IC50 (MCF-7 cells) [nM] | melting point [°C] | IC50 (CHO-K1 cells) [nM] | IC50 (A-549 cells) [nM] | other results
CNC(=S)NN=C(C)c1cc2cc(Br)ccc2oc1=O [Compound 2a] | 161 | 220 | 604 | 451 | 
C/C(=N\NC(=S)Nc1ccccc1)c1cc2cc(Br)ccc2oc1=O [Compound 2b] |  |  | 54 | 15 | IC50 (CDK4 enzyme): 36 nM
CC(=NN=C1SCC(=O)N1C)c1cc2cc(Br)ccc2oc1=O [Compound 3a] | 138 | 250 to 252 | 735 | 560 | 
CC(=NN=C1SCC(=O)N1c1ccccc1)c1cc2cc(Br)ccc2oc1=O [Compound 3b] | 116 |  | 127 | 56 | IC50 (CDK4 enzyme): 127 nM
CC(=NN=c1scc(-c2ccccc2)n1C)c1cc2cc(Br)ccc2oc1=O [Compound 4a, 6-Bromo-3-(1-((3-methyl-4-phenylthiazol-2(3H)-ylidene)hydrazono)ethyl)-2H-chromen-2-one] | 360 | 200 | 757 | 537 | 
CC(=NN=c1scc(-c2ccccc2)n1-c1ccccc1)c1cc2cc(Br)ccc2oc1=O [Compound 4b, 6-Bromo-3-(1-((3,4-diphenylthiazol-2(3H)-ylidene)hydrazono)ethyl)-2H-chromen-2-one] | 861 | 234 | 968 | 784 | 
CC(=NN=c1scc(-c2ccc(Br)cc2)n1C)c1cc2cc(Br)ccc2oc1=O [Compound 5a, 6-Bromo-3-(1-((4-(4-bromophenyl)-3-methylthiazol-2(3H)-ylidene)hydrazono)ethyl)-2H-chromen-2-one] | 102 |  | 75 | 54 | IC50 (CDK4 enzyme): 142 nM
C/C(=N\N=c1/scc(-c2ccc(Br)cc2)n1-c1ccccc1)c1cc2cc(Br)ccc2oc1=O [Compound 5b, 6-Bromo-3-(1-((4-(4-bromophenyl)-3-phenylthiazol-2(3H)-ylidene)hydrazono)ethyl)-2H-chromen-2-one] | 305 | 229 | 414 | 305 | 
CC(=NN=C1SC(CC(=O)O)C(=O)N1C)c1cc2cc(Br)ccc2oc1=O (stereo not drawn) [Compound 6a, 2-(2-((1-(6-Bromo-2-oxo-2H-chromen-3-yl)ethylidene)hydrazono)-3-methyl-4-oxothiazolidin-5-yl)acetic acid] | 55 | 280 | 131 | 95 | 
CC(=NN=C1SC(CC(=O)O)C(=O)N1c1ccccc1)c1cc2cc(Br)ccc2oc1=O (stereo not drawn) [Compound 6b, 2-(2-((1-(6-Bromo-2-oxo-2H-chromen-3-yl)ethylidene)hydrazono)-4-oxo-3-phenylthiazolidin-5-yl)acetic acid] | 55 | 251 | 101 | 77 | 
O=c1oc2ccc(Br)cc2cc1-c1csc(N/N=C/c2ccccc2)n1 [Compound 9a] | 60 |  | 91 | 34 | IC50 (CDK4 enzyme): 131 nM
Cc1ccc(C=NNc2nc(-c3cc4cc(Br)ccc4oc3=O)cs2)cc1 [Compound 9b] | 295 | 250 | 522 | 386 | 
COc1ccc(C=NNc2nc(-c3cc4cc(Br)ccc4oc3=O)cs2)cc1OC [Compound 9c] | 479 | 238 | 649 | 244 | 
O=c1oc2ccc(Br)cc2cc1-c1csc(NN=Cc2ccc([N+](=O)[O-])cc2)n1 [Compound 9d] | 780 |  | 901 | 513 | 
CN(C)c1ccc(C=NNc2nc(-c3cc4cc(Br)ccc4oc3=O)cs2)cc1 [Compound 9e] | 432 | 253 | 507 | 242 | 
O=c1oc2ccc(Br)cc2cc1-c1csc(NN=Cc2ccc(F)cc2)n1 [Compound 9f] | 276 | 278 | 495 | 200 | 
O=c1oc2ccc(Br)cc2cc1-c1csc(NN=Cc2ccc(Br)cc2)n1 [Compound 9g] | 488 | 267 | 744 | 441 | 
Cc1ccc(C=NNc2nc(-c3cc4cc(Br)ccc4oc3=O)cs2)o1 [Compound 9h] | 534 |  | 574 | 340 | 
O=c1oc2ccc(Br)cc2cc1-c1csc(NN=Cc2ccc([N+](=O)[O-])o2)n1 [Compound 9i] | 124 |  | 189 | 75 | IC50 (CDK4 enzyme): 193 nM
CN1CC[C@H](c2c(O)cc(O)c3c(=O)cc(-c4ccccc4Cl)oc23)[C@H](O)C1 [Flavopiridol, reference compound] | 4.45 |  | 2.41 | 1.14 | 
CC(C)(C)c1cnc(CSc2cnc(Nc3ccc(S(=O)(=O)NCCO)cc3)s2)o1 [IX] |  |  |  |  | IC50 (CDK4 [1]; [3]): 233 nM
CC(C)(CO)CNCc1ccc(Nc2ncc(SCc3ncc(C(C)(C)C)o3)s2)nc1 [VIII] |  |  |  |  | IC50 (CDK4 [1]; [3]): 26 nM
CSc1nc(C)c(-c2ccnc(Nc3ccc(N4CCN(C)CC4)cn3)n2)s1 [VIIa] |  |  |  |  | Ki (CDK4 [2]): 7 nM; Ki (CDK6): 42 nM
CSc1nc(C)c(-c2nc(Nc3ccc(N4CCN(C)CC4)cn3)ncc2C#N)s1 [VIIb] |  |  |  |  | Ki (CDK4 [2]): 4 nM; Ki (CDK6): 30 nM
CSc1nc(C)c(-c2nc(Nc3ccc(N4CCN(C)CC4)cn3)ncc2F)s1 [VIIc] |  |  |  |  | Ki (CDK4 [2]): 2 nM; Ki (CDK6): 55 nM
c1cnc(Nc2ncc(-c3ccnc(OC4CCCCC4)n3)s2)nc1 [Va] |  |  |  |  | IC50 (CDK4 [1]; 2-aminothiazoles of Banyu): 4.2 nM
Cc1cc(-c2cnc(Nc3ncccn3)s2)nc(OC2CCCCC2)n1 [Vb] |  |  |  |  | IC50 (CDK4 [1]; 2-aminothiazoles of Banyu): 34 nM
Cc1cc(-c2cnc(Nc3nccc(CN4CCN(C)CC4)n3)s2)nc(OC2CCCCC2)n1 [Vc] |  |  |  |  | IC50 (CDK4 [1]; 2-aminothiazoles of Banyu): 9.2 nM
